# Source: patent publication US9133230B2, “Hydrazone derivatives having potent antitumor activity toward multi-drug resistant tumor cells” (THE UNITED STATES OF AMERICA AS REPRESENTED BY THE …, priority 2011, dated 2015)
# Legend:
# HL60-VCR [1] = details: MDR cell line characterisation; cited from earlier work
# KB-A1000 = details: MDR cell line characterisation; cited from earlier work
# [2] = system: human breast carcinoma MCF-7; assay: MTS cytotoxicity assay, MCF-7; type: cell-based
# Procedure: (§1) In order to obtain information about the growth-inhibiting action of hydrazones reported in the present invention on tumor cells, growth inhibition was assessed for the following human tumor cell lines: human myelogenous leukemia K562, human cervical adenocarcinoma HeLa, human colon adenocarcinoma Caco-2, human colon carcinoma HT-29, human colon carcinoma HCT-15, and human breast carcinoma MCF-7.
# (§2) The K562, HeLa, HT-29, HCT-15, Caco-2, and MCF-7 cell lines were obtained from the American type Culture Collection (ATCC, Manassas, Va.). K562 cells were maintained in RPMI 1640 medium (Gibco/Life Technologies, Gaithersburg, Md.) containing 10% heat-inactivated fetal bovine serum (FBS) (Atlanta Biologicals, Atlanta, Ga.) and 10000 U/L penicillin and 50 mg/L streptomycin. HeLa, HT-29, HCT-15, Caco-2 and MCF-7 cells were maintained in MEM with Earl's balanced salts, 10% FBS, penicillin, and streptomycin as above. Logarithmically growing HT-29, Caco-2, and MCF-7 cells were incubated with 0.05% trypsin containing 1 mM EDTA at 37° C. for about 5 min until cells were nonadherent and formed a single cell suspension. Trypsin activity was neutralized by adding 20-fold excess of the serum-containing medium. Cells were cultured at 37° C. in an atmosphere of air and 5% CO2.
# (§3) Cytotoxicity assays were conducted by tetrazolium reduction of 3-(4,5-dimethylthiazol-2-yl)-5-(3-carboxymethoxyphenyl)-2-(4-sulfophenyl)-2H-tetrazolium (MTS) with N-methylphenazonium methyl sulfate (PMS) (CellTiter Assay, Promega, Madison, Wis.). Logarithmically growing cells were plated in 0.1 mL aliquots in 96-well microtiter plates. Cells were plated at an initial density of about 5000 cells/mL and allowed to acclimatize for 24 h. Cell suspensions were treated with various dilutions of compounds in triplicate, mixed well, and allowed to incubate for 48 h at 37° C. in an atmosphere of air and 5% CO2. To the cell suspension was added 20 μL of tetrazolium reagent, the mixture was incubated for 2 h at 37° C. in an atmosphere of air and 5% CO2, and absorbance at 490 nm was read by microplate reader. Control plates with serial dilutions of cell types were counted as a control for the assay. In all cases, controls indicated a linear response versus cell number, R^2≧0.99.
# [3] = system: human colon adenocarcinoma Caco-2; assay: MTS cytotoxicity assay, Caco-2; type: cell-based
# Procedure: as §1, §2, §3
# [4] = system: human myelogenous leukemia K562; assay: MTS cytotoxicity assay, K562; type: cell-based
# Procedure: as §1, §2, §3
# [5] = system: human colon carcinoma HCT-15; assay: MTS cytotoxicity assay, HCT-15; type: cell-based
# Procedure: as §1, §2, §3
# [6] = system: human cervical adenocarcinoma HeLa; assay: MTS cytotoxicity assay, HeLa; type: cell-based; details: 48 h incubation
# Procedure: as §1, §2, §3
# [7] = system: human colon carcinoma HT-29; assay: MTS cytotoxicity assay, HT-29; type: cell-based
# Procedure: as §1, §2, §3
# breast cancer cell lines = assay: NCI 60 human tumor cell line screen, breast; type: cell-based; details: Homo sapiens, arithmetic mean of two to nine cancer cell lines, read-out: Inhibitory concentration GI50, breast
# Description: (§4) Selected compounds were submitted for testing in the organ-specific panel of human tumor cell lines at the National Cancer Institute, Bethesda, Md. This screen utilized 60 human tumor cell lines, representing leukemia, melanoma, and cancers of the lung, colon, brain, ovary, kidney, prostate, and breast (Boyd, M. R., “Status of the NCl preclinical antitumor drug discovery screen”. In Principles and practice of oncology updates; De Vita, V. T., Jr. Hellman, S., Rosenberg, S. A., Eds.; Lippincott: Philadelphia, Pa., 1989; Vol. 3, pp 1-12).
# (§5) The MG MID value is the average of the GI50 values for all the cell lines tested for drug concentrations in the range of 10^−4-10^−8 M (See website domain: dtp.nci.nih.gov/dtp).
# melanoma cell lines = assay: NCI 60 human tumor cell line screen, melanoma; type: cell-based; details: Homo sapiens, arithmetic mean of two to nine cancer cell lines, read-out: Inhibitory concentration GI50, melanoma
# Description: as §4, §5
# colon cancer cell lines = assay: NCI 60 human tumor cell line screen, colon; type: cell-based; details: Homo sapiens, arithmetic mean of two to nine cancer cell lines, read-out: Inhibitory concentration GI50, colon
# Description: as §4, §5
# [8] = system: ovarian cancer cell lines; assay: NCI 60 human tumor cell line screen, ovarian; type: cell-based; details: Homo sapiens, arithmetic mean of two to nine cancer cell lines, read-out: Inhibitory concentration GI50, ovarian
# Description: as §4, §5
# HL60 = assay: MTS cytotoxicity on MDR tumor cells, HL60; type: cell-based; details: Homo sapiens, HL-60, Vincristine (VCR) sensitive, 72 hr incubation
# renal cancer cell lines = assay: NCI 60 human tumor cell line screen, renal; type: cell-based; details: Homo sapiens, arithmetic mean of two to nine cancer cell lines, read-out: Inhibitory concentration GI50, renal
# Description: as §4, §5
# leukemia cell lines = assay: NCI 60 human tumor cell line screen, leukemia; type: cell-based; details: Homo sapiens, arithmetic mean of two to nine cancer cell lines, read-out: Inhibitory concentration GI50, leukemia
# Description: as §4, §5
# HL60-VCR [9] = assay: MTS cytotoxicity on MDR tumor cells, HL60-VCR; type: cell-based; details: HL60/VCR, Vincristine (VCR) resistant, 72 hr incubation
# [10] = system: nonsmall cell lung cancer cell lines; assay: NCI 60 human tumor cell line screen, NSCL; type: cell-based; details: Homo sapiens, arithmetic mean of two to nine cancer cell lines, read-out: Inhibitory concentration GI50, NSCL
# Description: as §4, §5
# [11] = system: prostate cancer cell lines; assay: NCI 60 human tumor cell line screen, prostate; type: cell-based; details: Homo sapiens, arithmetic mean of two to nine cancer cell lines, read-out: Inhibitory concentration GI50, prostrate
# Description: as §4, §5
# [12] = system: 60 human tumor cell lines; assay: NCI 60 human tumor cell line screen, all cell lines; type: cell-based
# Description: as §4, §5
# CNS cancer cell lines = assay: NCI 60 human tumor cell line screen, CNS; type: cell-based; details: Homo sapiens, arithmetic mean of two to nine cancer cell lines, read-out: Inhibitory concentration GI50, CNS
# Description: as §4, §5
# [13] = Homo sapiens, MCF7, 48 h incubation
# [14] = Homo sapiens, Caco-2, 48 h incubation
# [15] = Homo sapiens, K562, 48 h incubation
# [16] = Homo sapiens, HCT-15, 48 h incubation
# [17] = Homo sapiens, HT-29, 48 h incubation
SMILES,"GI50 [2, 13]","GI50 [3, 14]","GI50 [4, 15]","GI50 [5, 16]","GI50 ([6]; Homo sapiens, HeLa)","GI50 [7, 17]",other results
CC[C@]1(O)C[C@H]2CN(CCc3c([nH]c4ccccc34)[C@@](C(=O)OC)(c3cc4c(cc3OC)N(C=O)[C@H]3[C@@](O)(C(=O)OC)[C@H](OC(C)=O)[C@]5(CC)C=CCN6CC[C@]43[C@@H]65)C2)C1 [vincristine],,,,,,,resistance expressed by HL60-VCR (HL60-VCR [1]): 1300 fold
CC[C@]1(O)C[C@@H]2CN(CCc3c([nH]c4ccccc34)[C@@](C(=O)OC)(c3cc4c(cc3OC)N(C)[C@H]3[C@@](O)(C(=O)OC)[C@H](OC(C)=O)[C@]5(CC)C=CCN6CC[C@]43[C@@H]65)C2)C1 [vinblastine],,,,,,,resistance expressed by KB-A1000 (KB-A1000): 43 fold; resistance expressed by HL60-VCR (HL60-VCR [1]): 620 fold
"N#Cc1ccccc1C=NNc1ncnc2c1ncn2C1O[C@H](CO)[C@@H](O)[C@H]1O (stereo partly drawn) [I-14, 2-((2-(9-((3R,4S,5R)-3,4-dihydroxy-5-(hydroxymethyl)tetrahydrofuran-2-yl)-9H-purin-6-yl)hydrazono)methyl)benzonitrile]",1.9 µM,0.8 µM,0.7 µM,< 1 µM,0.8 µM,1.2 µM,
"CC(C)=NNc1ncnc2c1ncn2C1O[C@H](CO)[C@@H](O)[C@H]1O (stereo partly drawn) [I-12, (2R,3S,4R)-2-(hydroxymethyl)-5-(6-(2-(propan-2-ylidene)hydrazinyl)-9H-purin-9-yl)tetrahydrofuran-3,4-diol]",0.2 µM,0.2 µM,0.3 µM,2.8 µM,0.6 µM,1.6 µM,"GI50 (breast cancer cell lines): 0.751 µM; GI50 (melanoma cell lines): 1.9 µM; GI50 (colon cancer cell lines): 0.497 µM; GI50 [8]: 0.447 µM; GI50 (HL60): 1.8 µM; GI50 (renal cancer cell lines): 0.516 µM; GI50 (leukemia cell lines): 1.27 µM; GI50 (HL60-VCR [9]): 2.2 µM; GI50 [10]: 0.786 µM; GI50 [11]: 0.363 µM; mean GI50 (MG-MID) ([12]; Homo sapiens, average of the GI50 values for all the cell lines tested, drug concentrations 10^−4-10^−8 M, read-out: MG-MID (mean graph midpoint)): 0.847 µM; cells found to be the most sensitive ([12]; NCI screen, by cancer type): prostate, ovarian, colon, and renal cancer cell lines; GI50 (CNS cancer cell lines): 1.2 µM"
"Cc1ccc(C=NNc2ncnc3[nH]cnc23)s1 [I-21, 6-[2-((5-Methylthiophen-2-yl)methylene)hydrazinyl]-9H-purine]",11 µM,39 µM,11 µM,40 µM,38 µM,35 µM,
OC[C@H]1OC(n2cnc3c(NN=C(c4ccccn4)c4ccccn4)ncnc32)[C@H](O)[C@@H]1O (stereo partly drawn) [I-13],,,,,,,GI50 ([2]; 48 h incubation): 0.9 µM; GI50 ([3]; 48 h incubation): 0.2 µM; GI50 ([4]; 48 h incubation): 0.3 µM; GI50 ([5]; 48 h incubation): < 1 µM; GI50 [6]: 0.3 µM; GI50 ([7]; 48 h incubation): 0.8 µM
"CC(=NNc1ncnc2c1ncn2C1O[C@H](CO)[C@@H](O)[C@H]1O)c1ccccc1 (stereo partly drawn) [I-17, (2R,3S,4R)-2-(hydroxymethyl)-5-(6-(2-(1-phenylethylidene)hydrazinyl)-9H-purin-9-yl)tetrahydrofuran-3,4-diol]",3.1 µM,3.1 µM,5 µM,4.6 µM,1.6 µM,2.6 µM,
"Cc1ccc(C=NNc2ncnc3c2ncn3C2O[C@H](CO)[C@@H](O)[C@H]2O)s1 (stereo partly drawn) [I-15, (2R,3S,4R)-2-(hydroxymethyl)-5-(6-(2-((5-methylthiophen-2-yl)methylene)hydrazinyl)-9H-purin-9-yl)tetrahydrofuran-3,4-diol]",16 µM,1.8 µM,19 µM,5 µM,4.3 µM,16 µM,
C[C@@]1(O)[C@@H](CO)OC(n2cnc3c(NN=Cc4ccccn4)ncnc32)[C@@H]1O (stereo partly drawn) [I-4],,,,,,,GI50 ([2]; 48 h incubation): 22 µM; GI50 ([3]; 48 h incubation): 7.6 µM; GI50 ([4]; 48 h incubation): 6.8 µM; GI50 ([5]; 48 h incubation): 3.9 µM; GI50 [6]: 7.6 µM; GI50 ([7]; 48 h incubation): 27 µM
COc1cccc2c1C(=O)c1c(O)c3c(c(O)c1C2=O)C[C@@](O)(C(=O)CO)C[C@@H]3O[C@H]1C[C@H](N)[C@H](O)[C@H](C)O1 [doxorubicine],,,,,,,resistance expressed by KB-A1000 (KB-A1000): 97 fold; resistance expressed by HL60-VCR (HL60-VCR [1]): 8 fold
"c1ccc(C(=NNc2ncnc3[nH]cnc23)c2ccccn2)cc1 [I-19, 6-(2-(Phenyl(pyridin-2-yl)methylene)hydrazinyl)-9H-purine]",0.9 µM,0.9 µM,0.9 µM,< 1 µM,1.4 µM,0.9 µM,
C(=NNc1ncnc2[nH]cnc12)c1ccc[nH]1 [I-22],,,,,,,GI50 ([2]; 48 h incubation): 9.2 µM; GI50 ([3]; 48 h incubation): > 100 µM; GI50 ([4]; 48 h incubation): 7.1 µM; GI50 ([5]; 48 h incubation): 5.6 µM; GI50 [6]: 12 µM; GI50 ([7]; 48 h incubation): 6.9 µM
